# Biological target: Substance-P receptor (Homo sapiens, UniProt P25103)
# Experiment: Tested against cloned human NK1 receptor by displacement of 125 I -labeled substance P expressed in CHO cells
# Format: cell-based
# Substance-P receptor, sequence (P25103 whole entry): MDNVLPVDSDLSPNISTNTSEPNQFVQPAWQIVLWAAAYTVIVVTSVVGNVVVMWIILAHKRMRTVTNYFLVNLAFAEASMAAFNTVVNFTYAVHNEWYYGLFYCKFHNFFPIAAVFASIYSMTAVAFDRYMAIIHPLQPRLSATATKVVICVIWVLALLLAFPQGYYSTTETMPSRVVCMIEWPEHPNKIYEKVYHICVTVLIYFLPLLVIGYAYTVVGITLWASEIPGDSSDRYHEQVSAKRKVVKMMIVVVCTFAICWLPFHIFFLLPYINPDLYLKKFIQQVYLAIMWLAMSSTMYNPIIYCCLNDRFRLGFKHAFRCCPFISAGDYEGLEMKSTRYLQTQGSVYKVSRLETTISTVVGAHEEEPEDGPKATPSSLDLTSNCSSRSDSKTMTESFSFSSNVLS
row,Structure (SMILES),IC50
1,N[C@@H](Cc1c[nH]c2ccccc12)C(=O)OCc1ccccc1,> 10000 nM
2,Cc1cc(C)cc(COC(=O)[C@@H](N)Cc2c[nH]c3ccccc23)c1,1530 nM
3,Cc1cc(C)cc(COC(=O)[C@H](Cc2c[nH]c3ccccc23)[N+](C)(C)C)c1,125 nM
4,CC(=O)N[C@@H](Cc1c[nH]c2ccccc12)C(=O)OCc1cc(C)cc(C)c1 [L-708568],67 nM
5,COc1ccccc1COC(=O)[C@H](Cc1c[nH]c2ccccc12)NC(=O)OC(C)(C)C,280 nM
6,Cc1cc(C)cc(COC(=O)[C@H](Cc2c[nH]c3ccccc23)N(C)C)c1,553 nM
7,CC(C)(C)OC(=O)N[C@@H](Cc1c[nH]c2ccccc12)C(=O)OCc1ccccc1,413 nM
